According to the NIST ThermoML archive (doi:10.1021/acs.jced.5b00940):

Assay: mn = molality of the nth substance listed, in mol/kg
Settings: 100 kPa, Liquid; for viscosity: Capillary tube (Ostwald / Ubbelohde) method; for mass density: Vibrating tube method

CC[N+](CC)(CC)CC.[Br-] [tetraethylammonium bromide] + O
Settings	mass density, 288.15 K [kg/m3]	mass density, 298.15 K [kg/m3]	mass density, 308.15 K [kg/m3]	mass density, 318.15 K [kg/m3]	viscosity, 288.15 K [mPa·s]	viscosity, 298.15 K [mPa·s]	viscosity, 308.15 K [mPa·s]	viscosity, 318.15 K [mPa·s]
m1 = 0.05	1001.83	998.859	993.878	991.993	1.16	0.904	0.731	0.612
m1 = 0.5	1017.91	1015.99	1010.17	1007.21	1.341	1.043	0.836	0.7
m1 = 1	1035.82	1032.57	1027.25	1023.5	1.55	1.209	0.959	0.792
m1 = 2	1060.98	1057.94	1051.91	1046.83	1.942	1.513	1.189	0.952
